This is an account of results in patent publication US6372727B1, “Metalloporphyrin treatment of neurologic disease” (UAB Research Foundation, priority 1999, dated 2002).

Data set [1] in a line: Oxidation of metalloporphyrins by peroxynitrite, stopped-flow spectroscopy. Type of data set: biochemical. The note with it: 37° C., 0.1 M potassium phosphate pH 7.4, pseudo-first order, ± standard error. As to the method:
Peroxynitrite (in 10 mM NaOH) was rapidly mixed with the indicated MPs in 0.1 M potassium phosphate, pH 7.4 at 37° C. using a stopped-flow apparatus as described in Methods. […] A final concentration of 40 μM peroxynitrite was added to 8 μM of each of the MPs MnTBAP, MnPPIX, and FePPIX. […] INSET: Apparent rate constants for oxidation of 8 μM MnTBAP are plotted as a function of peroxynitrite concentration to illustrate how the rate constants listed in Table III were determined.
Rates of metal loporphyrin oxidation by peroxynitrite were determined using a Bio Sequential SX-18MV Applied Photophysics stopped-flow spectrofluorometer. Solutions of metalloporphyrins in 0.1 M potassium phosphate buffer, pH 7.4 were placed in one syringe and solutions of peroxynitrite in 10 mM NaOH were placed in a second syringe, both of which were submerged in a water bath at 37° C. Changes in metalloporphyrin absorbance as a function of time were recorded following triggering of syringe firing and solution mixing (instrument dead time=2 msec); a total of 1000 data points were collected over intervals ranging from 50 msec to 3 sec. […] Because the absorbance changes associated with loss of +3 forms were greater, rates of metalloporphyrin oxidation were determined by monitoring the disappearance of Mn(III)TMPyP at 462 nm, Mn(III)TBAP at 468 nm, Mn(III)PPIX at 466 nm, and Fe(III)PPIX at 464 nm. Absorbance changes as a function of time were fitted to the equation describing a first order process. The concentration of peroxynitrite was varied from five-fold to forty-fold greater than the fixed metalloporphyrin concentration in order to obtained pseudo first-order conditions (see Table III). Each concentration was injected 10 times and data were averaged automatically prior to fitting.
Rate constants for stoichiometric metalloporphyrin oxidation by peroxynitrite at 37° C. were determined under pseudo-first order reaction conditions by varying the amount of peroxynitrite added to a fixed concentration of metalloporphyrin (Table III).
In Table III, the rate of peroxynitrite-mediated oxidation of metalloporphyrins at 37° C. was determined. Apparent rate constants were determined by stopped-flow spectroscopy and plotted versus the peroxynitrite concentration (as shown for MnTBAP in FIG. 4 inset) to determine the bimolecular rate constant in M^−1s^−1±standard error. FePPIX was monitored at 387 nm, MnPPIX at 464 nm, and MnTBAP at 470 nm.

For data set [2] the following is noted: reference (8); cited from earlier work.
Another data set concerns cultured motor neurons. Briefly: Protection of cultured motor neurons from growth factor withdrawal. Type of data set: cell-based. The method, then:
Culture Motor neurons were prepared from embryonic day 15 (E15) rat spinal cords by a combination of metrizamide gradient centrifugation and immunopanning with the monoclonal antibody IgG192 (Chandler et al., J. Biol. Chem. 259:6882-6889, 1984) as previously described (Estevez et al., J Neurosci 18:923-931, 1998; Henderson C E, Bloch-Gallego E, Camu W (1995): Purification and culture of embryonic motorneurons. In Cohen J, Wilkin G (eds): Neural Cell Culture: A Practical Approach. Oxford, England: IRL Press, pp 69-81). Long-term cultures of motor neurons were performed as described by Pennica et al. (Pennica et al., Neuron 17:63-74, 1996). Briefly, motor neurons were plated at a density of 200 cells/cm2 on 35 mm dishes precoated with polyornithine-laminin in Neurobasal medium supplemented with B27 (Life Technologies, Grand Island, N.Y.), 2% horse serum, 0.5 mM L-glutamine, 25 μM 2-mercaptoethanol and 25 μM L-glutamate. Every 3-4 days ¾ of the culture medium was replaced by fresh medium lacking L-glutamate and containing sufficient quantities of BDNF or FeTCPP to supplement the 2 ml of medium in the dish. More than 94% of the cells were immunoreactive for the p75 low-affinity neurotrophic receptor (p75NTR) and Islet ½, which are markers for motor neurons. The experiments were repeated at least 2 times using the same lot of Neurobasal medium and B 27 supplement.
The number of motor neurons with neurites longer than 4 soma diameters present in parallel cultures treated with BDNF at a final concentration of 100 pg/ml 24 h after plating or culture media replacement was considered 100% motor neuron survival. FeTCPP was resuspended in complete Neurobasal medium at a 5 mM concentration. Dilutions were performed of the stock solution to add 20 μl per dish.
Rat motor neurons survive many days in culture when brain-derived neurotrophic factor (BDNF) is added to the culture media. Because motor neurons are the cells that preferentially die in ALS, primary cultures of motor neurons represent the best non-animal model of ALS. Withdrawal of BDNF results in apoptotic death of >70% of motor neurons within 24 h. Cell death was correlated with expression of the neuronal form of nitric oxide synthase (nNOS) and the production of peroxynitrite, as evidenced by protein tyrosine nitration. When FeTCPP is added to the culture media in place of BDNF and motor neuron survival is assessed at 24 h, some protection is seen at concentrations as low as 0.01 μM (FIG. 10A). […] Additionally, a comparison of the effect of FETCPP and its tetra-methyl ester derivative, TMeO-FeTCPP, on motor neuron survival at 72 hr.

On to `C[n+]1ccc(-c2c3nc(c(-c4cc[n+](C)cc4)c4ccc([n-]4)c(-c4cc[n+](C)cc4)c4nc(c(-c5cc[n+](C)cc5)c5ccc2[n-]5)C=C4)C=C3)cc1.[Cl-].[Cl-].[Cl-].[Cl-].[Cl-].[Mn+3]` [MnTMPyP, Manganese (III) meso-tetra-(N-methyl-4-pyridyl)-porphine chloride], for which the “Rate Constants for Oxidation of MPs by Peroxynitrite” value in data set [1] worked out at 3.6e+06 M⁻¹ s⁻¹. Further, the “Rate constant for oxidation by peroxynitrite reported previously” value in data set [2] is 1.8e+06 M⁻¹ s⁻¹.

Take `O=C(O)c1ccc(-c2c3nc(c(-c4ccc(C(=O)O)cc4)c4ccc([n-]4)c(-c4ccc(C(=O)O)cc4)c4nc(c(-c5ccc(C(=O)O)cc5)c5ccc2[n-]5)C=C4)C=C3)cc1.[Fe+2]` [FeTCPP, Iron (III) meso 5,10,15,20-tetrakis-(4-carboxy-phenyl) porphyrin]: the “survival of cultured motor neurons deprived of growth factors” value in the data set on cultured motor neurons is “prolong survival of cultured motor neurons”. Also, in the data set with cultured motor neurons (0.1 μM and 1.0 μM), the “long-term motor neuron survival compared with BDNF” value is recorded as “as effective as BDNF”. Besides, in the data set with cultured motor neurons (0.1 μM, 24 h, in place of BDNF, 100% = BDNF 100 pg/ml), the maximal cell survival is on record as 90%. Moreover, in the data set on cultured motor neurons (100 μM, 24 h, in place of BDNF), the cell survival is reported as 90%. In addition, the “dose-response for survival of motor neurons at 72 h” value with cultured motor neurons (72 h) was “virtually identical to the 24 h survival results”. Moreover, the “lowest concentration at which some protection is seen” value in the data set on cultured motor neurons (added in place of BDNF, survival at 24 h) stood at 0.01 µM. The “cell survival at day 16” value with cultured motor neurons (lower dose (0.1 μM), long-term culture) is listed as 90%. Also, the “toxicity to motor neurons” value with cultured motor neurons (relatively high concentrations, 100 μM) was “not toxic”.
